In patent US11629171B2, “Beta-hairpin peptidomimetics” (POLYPHOR AG, priority 2017, dated 2023):
Values after ≈ are worked out from the molar mass of the structure shown. Where a SMILES comes first, the peptide text is derived from it. Bridges are numbered along the chain shown (N, C = ends). Roman numbers before positions name the chains, in order. [ ]: non-standard residue; d: D form. Tle = CC(C)(C)[C@H](N)C(=O)O; dDab = NCC[C@@H](N)C(=O)O; Dab = NCC[C@H](N)C(=O)O; Dap = NC[C@H](N)C(=O)O; Mpa = O=C(O)CCS

Legend:
Assay type in all cases: cell-based
[1] = test system: human red blood cells (hRBC); assay: Hemolysis; conditions: red cells of human, 1 h, 200
Procedure, shortened: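 Hemoglobin release from PBS-washed hRBC at 20% (v/v), incubated 1 h at 37° C with peptides at 200 μg/mL, is measured at 540 nm. Values are blank corrected and given as a fraction of Triton X-100 lysis × 100%.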

[2] = test system: Klebsiella pneumoniae 968733; conditions: 968733
Procedure, shortened: (§1)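 Peptides are tested in serial two-fold dilutions against about 10^6 CFU/mL in MH-II broth containing 0.002% P-80 (v/v, final). Plates incubate 18-20 h at 35° C, and the MIC is the lowest peptide level (μg/mL) showing no visible growth.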

[3] = test system: Enterobacter cloacae 848840; conditions: 848840
Procedure, shortened: as §1

[4] = test system: Acinetobacter baumannii DSM 30008; conditions: DSM 30008
Procedure, shortened: as §1

[5] = test system: Acinetobacter baumannii 872842; conditions: 872842
Procedure, shortened: as §1

[6] = test system: Escherichia coli 926415; conditions: 926415
Procedure, shortened: as §1

[7] = test system: Escherichia coli ATCC 25922; conditions: ATCC 25922
Procedure, shortened: as §1

[8] = test system: Klebsiella pneumoniae SSI #3010; conditions: SSI #3010
Procedure, shortened: as §1

[9] = test system: Pseudomonas aeruginosa ATCC 27853; conditions: ATCC 27853
Procedure, shortened: as §1

Structure (SMILES) | MIC [2] [µg/mL] | MIC [3] [µg/mL] | MIC [4] [µg/mL] | MIC [5] [µg/mL] | MIC [6] [µg/mL] | MIC [7] [µg/mL] | MIC [8] [µg/mL] | MIC [9] [µg/mL] | Hemolysis at 200 μg/mL [1] [%]
CC(C)C[C@@H]1NC(=O)[C@@H](CC(C)C)NC(=O)[C@H](CCN)NC(=O)[C@@H](NC(=O)[C@H](CCN)NC(=O)[C@@H](NC(=O)[C@H](CCN)NC(=O)CC[C@@H]2NC(=O)[C@H](CCN)NC(=O)[C@H](Cc3ccc(O)cc3)NC(=O)[C@@H](NC(=O)[C@@H](NC(=O)[C@H](N)CO)C(C)C)CSSC[C@@H](C(=O)N[C@@H](CO)C(=O)N[C@H](C)C(=O)O)NC(=O)[C@H](C(C)(C)C)NC(=O)[C@H](CO)NC(=O)[C@H](Cc3c[nH]c4ccccc34)NC(=O)[C@H]([C@@H](C)O)NC(=O)[C@@H](CCN)NC2=O)[C@@H](C)O)CCNC(=O)[C@H]([C@@H](C)O)NC(=O)[C@H](CCN)NC(=O)[C@H](CCN)NC1=O [Ex. 241] (I: H-[dS]VCY[Dab]E[dDab]TWS[Tle]CS[dA]-OH / II: [Dab]T[Dab][Dab][Dab][dL]L[Dab][Dab]T; disulfide I:3-I:12; amide I:6-II:N; lactam II:4-II:C) | 1 (≈ 0.391 µM) | 2 (≈ 0.782 µM) | 0.125 (≈ 0.0489 µM) | 0.125 (≈ 0.0489 µM) | 1 (≈ 0.391 µM) | 0.125 (≈ 0.0489 µM) | 0.125 (≈ 0.0489 µM) | 0.25 (≈ 0.0977 µM) | <1
CC(C)C[C@@H]1NC(=O)[C@@H](CC(C)C)NC(=O)[C@H](CCN)NC(=O)[C@@H](NC(=O)[C@H](CCN)NC(=O)[C@@H](NC(=O)[C@H](CCN)NC(=O)CC[C@@H]2NC(=O)[C@H](CCN)NC(=O)[C@H](Cc3ccc(O)cc3)NC(=O)[C@@H](NC(=O)[C@@H](NC(=O)[C@H](N)CO)C(C)C)CSSC[C@@H](C(=O)N[C@@H](CO)C(=O)N[C@H](CO)C(=O)O)NC(=O)[C@H](C(C)(C)C)NC(=O)[C@H](CO)NC(=O)[C@H](Cc3c[nH]c4ccccc34)NC(=O)[C@H]([C@@H](C)O)NC(=O)[C@@H](CCN)NC2=O)[C@@H](C)O)CCNC(=O)[C@H]([C@@H](C)O)NC(=O)[C@H](CCN)NC(=O)[C@H](CCN)NC1=O [Ex. 242] (I: H-[dS]VCY[Dab]E[dDab]TWS[Tle]CS[dS]-OH / II: [Dab]T[Dab][Dab][Dab][dL]L[Dab][Dab]T; disulfide I:3-I:12; amide I:6-II:N; lactam II:4-II:C) | 1 (≈ 0.389 µM) | 4 (≈ 1.55 µM) | 0.125 (≈ 0.0486 µM) | 0.125 (≈ 0.0486 µM) | 0.25 (≈ 0.0971 µM) | 0.0625 (≈ 0.0243 µM) | 0.125 (≈ 0.0486 µM) | 0.125 (≈ 0.0486 µM) | <1
CC(=O)N[C@@H](CCN)C(=O)N[C@H](C(=O)N[C@H]1CSSC[C@@H](C(=O)N[C@@H](CO)C(=O)N[C@@H](CCC(=O)O)C(N)=O)NC(=O)[C@H](C(C)(C)C)NC(=O)[C@H](CO)NC(=O)[C@H](Cc2c[nH]c3ccccc23)NC(=O)[C@H](CCN)NC(=O)[C@@H](CCN)NC(=O)[C@H](CCC(=O)N[C@@H](CCN)C(=O)N[C@H](C(=O)N[C@@H](CN)C(=O)N[C@H]2CCNC(=O)[C@H]([C@@H](C)O)NC(=O)[C@H](CCN)NC(=O)[C@H](CCN)NC(=O)[C@H](CC(C)C)NC(=O)[C@@H](CC(C)C)NC(=O)[C@H](CCN)NC2=O)[C@@H](C)O)NC(=O)[C@H](CO)NC(=O)[C@H](Cc2ccc(O)cc2)NC1=O)C(C)C [Ex. 243] (I: Ac-[Dab]VCYSE[dDab][Dab]WS[Tle]CSE-NH2 / II: [Dab]T[Dap][Dab][Dab][dL]L[Dab][Dab]T; disulfide I:3-I:12; amide I:6-II:N; lactam II:4-II:C) | 0.125 (≈ 0.0473 µM) | 0.25 (≈ 0.0946 µM) | 0.0625 (≈ 0.0237 µM) | 0.0625 (≈ 0.0237 µM) | 0.125 (≈ 0.0473 µM) | 0.0625 (≈ 0.0237 µM) | 0.0625 (≈ 0.0237 µM) | 0.25 (≈ 0.0946 µM) | <1
CC(=O)N[C@H]1CSSC[C@@H](C(N)=O)NC(=O)[C@H](CO)NC(=O)[C@H](C)NC(=O)[C@H](C(C)(C)C)NC(=O)[C@H](CO)NC(=O)[C@H](Cc2c[nH]c3ccccc23)NC(=O)[C@H](CO)NC(=O)[C@@H](CCN)NC(=O)[C@H](CCC(=O)N[C@@H](CCN)C(=O)N[C@H](C(=O)N[C@@H](CN)C(=O)N[C@H]2CCNC(=O)[C@H]([C@@H](C)O)NC(=O)[C@H](CCN)NC(=O)[C@H](CCN)NC(=O)[C@H](CC(C)C)NC(=O)[C@@H](CC(C)C)NC(=O)[C@H](CCN)NC2=O)[C@@H](C)O)NC(=O)[C@H](CN)NC(=O)[C@H](Cc2ccc(O)cc2)NC(=O)[C@H]([C@@H](C)O)NC(=O)[C@H](C(C)C)NC1=O [Ex. 244] (I: Ac-CVTY[Dap]E[dDab]SWS[Tle]ASC-NH2 / II: [Dab]T[Dap][Dab][Dab][dL]L[Dab][Dab]T; disulfide I:1-I:14; amide I:6-II:N; lactam II:4-II:C) | 0.0625 (≈ 0.0243 µM) | 0.0625 (≈ 0.0243 µM) | 0.03125 (≈ 0.0122 µM) | 0.0625 (≈ 0.0243 µM) | 0.125 (≈ 0.0486 µM) | 0.03125 (≈ 0.0122 µM) | 0.0625 (≈ 0.0243 µM) | 0.25 (≈ 0.0972 µM) | 1
CC(C)C[C@@H]1NC(=O)[C@@H](CC(C)C)NC(=O)[C@H](CCN)NC(=O)[C@@H](NC(=O)[C@H](CN)NC(=O)[C@@H](NC(=O)[C@H](CCN)NC(=O)CC[C@@H]2NC(=O)[C@H](CN)NC(=O)[C@H](Cc3ccc(O)cc3)NC(=O)[C@H]([C@@H](C)O)NC(=O)[C@H](C(C)C)NC(=O)CCSSC[C@@H](C(N)=O)NC(=O)[C@H](CO)NC(=O)[C@H](C)NC(=O)[C@H](C(C)(C)C)NC(=O)[C@H](CO)NC(=O)[C@H](Cc3c[nH]c4ccccc34)NC(=O)[C@H](CO)NC(=O)[C@@H](CCN)NC2=O)[C@@H](C)O)CCNC(=O)[C@H]([C@@H](C)O)NC(=O)[C@H](CCN)NC(=O)[C@H](CCN)NC1=O [Ex. 245] (I: [Mpa]VTY[Dap]E[dDab]SWS[Tle]ASC-NH2 / II: [Dab]T[Dap][Dab][Dab][dL]L[Dab][Dab]T; disulfide I:1-I:14; amide I:6-II:N; lactam II:4-II:C) | 0.25 (≈ 0.0994 µM) | 0.125 (≈ 0.0497 µM) | 0.03125 (≈ 0.0124 µM) | 0.0625 (≈ 0.0249 µM) | 0.125 (≈ 0.0497 µM) | 0.0625 (≈ 0.0249 µM) | 0.125 (≈ 0.0497 µM) | 0.25 (≈ 0.0994 µM) | 1

Continued, in another order:

MIC [2] [µg/mL] | MIC [3] [µg/mL] | MIC [4] [µg/mL] | MIC [5] [µg/mL] | MIC [6] [µg/mL] | MIC [7] [µg/mL] | MIC [8] [µg/mL] | MIC [9] [µg/mL] | Structure (SMILES) | Hemolysis at 200 μg/mL [1] [%]
4 (≈ 1.52 µM) | 2 (≈ 0.762 µM) | 0.5 (≈ 0.191 µM) | 4 (≈ 1.52 µM) | 2 (≈ 0.762 µM) | 0.25 (≈ 0.0953 µM) | 0.25 (≈ 0.0953 µM) | 0.25 (≈ 0.0953 µM) | CC(=O)N[C@@H](CCN)C(=O)N[C@H](C(=O)N[C@H]1CSSC[C@@H](C(=O)N[C@H](C(=O)N[C@@H](C)C(=O)N[C@H](C(=O)N[C@@H](CCC(=O)O)C(N)=O)C(C)C)C(C)(C)C)NC(=O)[C@H](Cc2c[nH]c3ccccc23)NC(=O)[C@H](CO)NC(=O)[C@@H](CCN)NC(=O)[C@H](CCC(=O)N[C@@H](CCN)C(=O)N[C@H](C(=O)N[C@@H](CN)C(=O)N[C@H]2CCNC(=O)[C@H]([C@@H](C)O)NC(=O)[C@H](CCN)NC(=O)[C@H](CCN)NC(=O)[C@H](CC(C)C)NC(=O)[C@@H](CC(C)C)NC(=O)[C@H](CCN)NC2=O)[C@@H](C)O)NC(=O)[C@H](CN)NC(=O)[C@H](Cc2ccc(O)cc2)NC1=O)C(C)C [Ex. 246] (I: Ac-[Dab]VCY[Dap]E[dDab]SWC[Tle]AVE-NH2 / II: [Dab]T[Dap][Dab][Dab][dL]L[Dab][Dab]T; disulfide I:3-I:10; amide I:6-II:N; lactam II:4-II:C) | <1
8 (≈ 3.07 µM) | 0.25 (≈ 0.0958 µM) | 0.125 (≈ 0.0479 µM) | 0.5 (≈ 0.192 µM) | 0.5 (≈ 0.192 µM) | 0.125 (≈ 0.0479 µM) | 0.25 (≈ 0.0958 µM) | 0.25 (≈ 0.0958 µM) | CC(=O)N[C@@H](CCC(=O)O)C(=O)N[C@H](C(=O)N[C@H](C(=O)N[C@@H](Cc1ccc(O)cc1)C(=O)N[C@@H](CN)C(=O)N[C@@H](CCC(=O)N[C@@H](CCN)C(=O)N[C@H](C(=O)N[C@@H](CN)C(=O)N[C@H]1CCNC(=O)[C@H]([C@@H](C)O)NC(=O)[C@H](CCN)NC(=O)[C@H](CCN)NC(=O)[C@H](CC(C)C)NC(=O)[C@@H](CC(C)C)NC(=O)[C@H](CCN)NC1=O)[C@@H](C)O)C(=O)N[C@H](CCN)C(=O)N[C@@H](CCN)C(=O)N[C@@H](Cc1c[nH]c2ccccc12)C(=O)N[C@@H](CO)C(=O)N[C@H](C(=O)N[C@@H](C)C(=O)N[C@@H](CO)C(=O)N[C@@H](CCN)C(N)=O)C(C)(C)C)[C@@H](C)O)C(C)C [Ex. 247] (I: Ac-EVTY[Dap]E[dDab][Dab]WS[Tle]AS[Dab]-NH2 / II: [Dab]T[Dap][Dab][Dab][dL]L[Dab][Dab]T; amide I:6-II:N; lactam II:4-II:C) | <1
